We go through 41 compounds from publication PMC10726440, “N-Biphenyl Pyrrolinones and Dibenzofurans as RNA-Binding Protein LIN28 Inhibitors Disrupting the LIN28–Let-7 Interaction” (ACS Medicinal Chemistry Letters, 2023).

For the experiment, the target named is T1, LIN28A(16–187)–let-7 interaction (Homo sapiens, UniProt Q9H9Z2).
T1 construct: LIN28A(16–187) or LIN28B(24–111); pET19a or pMAL vector) (cleaved yes); made in house; host or cells: Escherichia coli BL21(DE3)
T1 sequence (Q9H9Z2 16-187): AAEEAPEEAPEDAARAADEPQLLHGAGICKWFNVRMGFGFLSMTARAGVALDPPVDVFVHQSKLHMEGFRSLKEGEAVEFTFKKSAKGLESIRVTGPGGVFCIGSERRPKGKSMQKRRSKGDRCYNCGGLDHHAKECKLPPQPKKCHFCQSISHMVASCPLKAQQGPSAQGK
Nature of the experiment: Electrophoretic mobility shift assay (EMSA), disruption of LIN28–let-7 complex. Format: binding. As to conditions: for IC50: concentration-dependent EMSA, some values estimated, read-out: IC50 in dose–response EMSA; for inhibition at 75 µM: read-out: inhibition of the LIN28–let-7 interaction measured in EMSA. The method, then: Inhibition of the LIN28–let-7 complex was evaluated by electrophoretic mobility shift assays. Mixtures containing compound at indicated concentrations, LIN28A(16–187) or LIN28B(24–111), and recombinant ribonuclease inhibitor (TaKaRa Bio) were incubated at room temperature for 2 h. The reaction buffer contained 50 mM TRIS, pH 7.5, 100 mM NaCl, 10 mM β-mercaptoethanol, 50 μM ZnCl2, 2% DMSO, 0.01% Tween-20 and 12% glycerol. Cy-3-fluorophore labeled RNA, (pre-E let-7f-1-Cy3, Mus musculus, […]-Cy3, purchased from IDT) was added to the reaction and incubated for further 15 min. The final concentrations were as follows: 10 nM LIN28A or 200 nM LIN28B, 5 nM RNA. Of each mixture, 10 μL was analyzed on a nondenaturing PAGE (5.3% acrylamide TAE PAGE for full-length LIN28 and 10% acrylamide TAE PAGE for analysis of the CSD) prerun for 1 h without sample and run for 1 h at 220 V at 4 °C in 0.25× TAE buffer. Gels were imaged using a ChemiDoc MP instrument (Bio-Rad Laboratories). Band intensities were analyzed using ImageJ and inhibition was quantified by calculation of the ratio of free RNA fluorescence to the fluorescence of the protein–RNA complex, and normalization to free RNA and LIN28–let-7 complex controls. The intensity ratio was analyzed by nonlinear regression fit in GraphPad Prism to determine the IC50 values.

Setting [1] is: single concentration of 75 μM, 75 µM.

Molecules are shown by their SMILES. Several values for one entry are separate records, joined by “and”; a condition that tells them apart may be missing. Equal values may be shown once. Read-outs that look alike come from different tables or passages of the source.

The term IC50 denotes the concentration at which inhibition is half-maximal. One may read the inhibition as the change of the read-out against control, counted positive when it falls.

On to `O=C(C1=C(O)C(=O)N(c2ccc(O)c(C(=O)O)c2)C1c1ccc([N+](=O)[O-])cc1)c1ccccc1` (centres unmarked) [Compound 2], for which, where the note is “single concentration of 75 μM”, the “inhibition of the LIN28–let-7 interaction measured in EMSA” value (“inhibition … in EMSA” below) is “not active”.

On to `Cc1ccc(C(=O)C2=C(O)C(=O)N(c3ccc(O)c(C(=O)O)c3)C2c2ccc([N+](=O)[O-])cc2)cc1` (centres unmarked) [Compound 3], for which the IC50 was 33 µM. For the same compound, the inhibition at 75 µM (single concentration of 75 μM) is not below 60%. As to `O=C(C1=C(O)C(=O)N(c2ccc(O)c(C(=O)O)c2)C1c1ccc([N+](=O)[O-])cc1)c1ccccn1` (centres unmarked) [Compound 4], the 50% inhibitory concentration (IC50) is 19 µM and ~19 µM. Turning to `O=C(O)c1cc(N2C(=O)C(O)=C(c3nccs3)C2c2ccc([N+](=O)[O-])cc2)ccc1O` (centres unmarked) [Compound 5], the IC50 was 32 µM. Under “single concentration of 75 μM”, the “inhibition … in EMSA” value is “active” and the inhibition at 75 µM is not below 60%. Turning to `O=C(C1=C(O)C(=O)N(c2ccc(O)c(C(=O)O)c2)C1c1ccc2[nH]nnc2c1)c1ccccc1` (centres unmarked) [Compound 6], the IC50 was 20 µM and ~20 µM. Besides, for the setting “single concentration of 75 μM”, the inhibition at 75 µM amounted to 95.4%. With `O=C(C1=C(O)C(=O)N(c2ccc(O)c(C(=O)O)c2)C1c1ccc2cn[nH]c2c1)c1ccccc1` (centres unmarked) [Compound 7], the concentration for half-maximal inhibition (IC50) was 34 µM. The inhibition at 75 µM (single concentration of 75 μM) turned out to be 70.7%. Consider `O=C(C1=C(O)C(=O)N(c2ccc(O)c(C(=O)O)c2)C1c1ccc2cnccc2c1)c1ccccc1` (centres unmarked) [Compound 9], for which the IC50 was < 15 µM and ~5 µM. Further, under “single concentration of 75 μM”, the inhibition at 75 µM is 99.9%. As to `Nc1ccc(C2C(C(=O)c3ccccc3)=C(O)C(=O)N2c2ccc(O)c(C(=O)O)c2)cc1` (centres unmarked) [Compound 10], the half-maximal inhibitory concentration (IC50) was < 15 µM and 5 to 15 µM. The inhibition at 75 µM (single concentration of 75 μM) was 84.1%.

For `O=C(C1=C(O)C(=O)N(CCCc2ccccc2)C1c1ccc([N+](=O)[O-])cc1)c1ccccc1` (centres unmarked) [Compound 12], the IC50 is < 15 µM and 5 to 15 µM. The “inhibition … in EMSA” value under setting [1] turned out to be 77%. In addition, the inhibition at 75 µM (single concentration of 75 μM) was 76.5%. As to `COc1ccc(CN/C(=C2\C(=O)C(=O)N(c3ccc(O)c(C(=O)O)c3)C2c2ccc([N+](=O)[O-])cc2)c2ccccc2)cc1` (centres unmarked) [Compound 13], the IC50 was 26 µM. Moreover, for the setting “single concentration of 75 μM”, the “inhibition … in EMSA” value is listed as “active” and the inhibition at 75 µM turned out to be 102%.

Turning to `O=C(O)c1cc(N2C(=O)c3nn(Cc4ccccc4)c(-c4ccccc4)c3C2c2ccc([N+](=O)[O-])cc2)ccc1O` (centres unmarked) [Compound 14], the “inhibition … in EMSA” value (single concentration of 75 μM) is “inactive”. As for `O=C(O)c1cc(N2C(=O)c3c(c(-c4ccccc4)nn3Cc3ccccc3)C2c2ccc([N+](=O)[O-])cc2)ccc1O` (centres unmarked) [Compound 15], the “inhibition … in EMSA” value (single concentration of 75 μM) is “inactive”. For the compound `O=C(C1=C(O)C(=O)N(c2ccc(O)c(C(=O)O)c2)[C@@H]1c1ccc([N+](=O)[O-])cc1)c1ccc(Cl)cc1` [Compound 16], the “inhibition … in EMSA” value (single concentration of 75 μM) was “none of these aforementioned enantiomerically pure molecules were active”. As to `O=C(C1=C(O)C(=O)N(c2ccc(O)c(C(=O)O)c2)[C@H]1c1ccc([N+](=O)[O-])cc1)c1ccc(Cl)cc1` [Compound 17], the “inhibition … in EMSA” value (single concentration of 75 μM) is reported as “none of these aforementioned enantiomerically pure molecules were active”. Consider `O=C(O)c1cc(N2C(=O)C(O)=C(Cc3ccccc3)[C@@H]2c2ccc([N+](=O)[O-])cc2)ccc1O` [Compound 18], for which the “inhibition … in EMSA” value (single concentration of 75 μM) is “none of these aforementioned enantiomerically pure molecules were active”.

In the case of `O=C(O)c1cc(N2C(=O)C(O)=C(Cc3ccccc3)[C@H]2c2ccc([N+](=O)[O-])cc2)ccc1O` [Compound 19], the “inhibition … in EMSA” value (single concentration of 75 μM) is reported as “none of these aforementioned enantiomerically pure molecules were active”.

As to `O=C(C1=C(O)C(=O)N(c2cccc([N+](=O)[O-])c2)[C@H]1c1ccc([N+](=O)[O-])cc1)c1ccccc1` [Compound 20], under “single concentration of 75 μM”, the “inhibition … in EMSA” value is given as “none of these aforementioned enantiomerically pure molecules were active”.

As for `O=C(C1=C(O)C(=O)N(c2cccc([N+](=O)[O-])c2)[C@@H]1c1ccc([N+](=O)[O-])cc1)c1ccccc1` [Compound 21], the “inhibition … in EMSA” value (single concentration of 75 μM) was “none of these aforementioned enantiomerically pure molecules were active”. Turning to `NC1=C(C(=O)c2ccccc2)[C@@H](c2ccc([N+](=O)[O-])cc2)N(c2ccc(O)c(C(=O)O)c2)C1=O` [Compound 22], the “inhibition … in EMSA” value was “inactive” (single concentration of 75 μM) and “none of these aforementioned enantiomerically pure molecules were active” under setting [1]. Regarding `N=C1CC=CC=C1C1=C(N)C(=O)N(c2ccc(O)c(C(=O)O)c2)[C@@H]1c1ccc([N+](=O)[O-])cc1` [Compound 23], the “inhibition … in EMSA” value (single concentration of 75 μM) is “inactive” and the “inhibition … in EMSA” value under setting [1] is listed as “none of these aforementioned enantiomerically pure molecules were active”. For the compound `O=C(C1=C(O)C(=O)N(c2cccc(-c3ccccc3)c2)C1c1ccc([N+](=O)[O-])cc1)C1CCCCC1` (centres unmarked) [Compound 24], the inhibition at 75 µM (single concentration of 75 μM) was 49%. Turning to `O=C(C1=C(O)C(=O)N(c2cccc(-c3ccccc3)c2)C1c1ccc([N+](=O)[O-])cc1)C1CCC1` (centres unmarked) [Compound 26], under “single concentration of 75 μM”, the inhibition at 75 µM was 8%. For the compound `O=C(C1=C(O)C(=O)N(c2cccc(-c3ccccc3)c2)C1c1ccc([N+](=O)[O-])cc1)c1ccc(Br)cc1` (centres unmarked) [Compound 30], the inhibition at 75 µM (single concentration of 75 μM) was found to be 73%. With `COc1ccc(C(=O)C2=C(O)C(=O)N(c3cccc(-c4ccccc4)c3)C2c2ccc([N+](=O)[O-])cc2)cc1` (centres unmarked) [Compound 31], under “single concentration of 75 μM”, the inhibition at 75 µM amounted to 87%.

With `O=C(C1=C(O)C(=O)N(c2cccc(-c3ccccc3)c2)C1c1ccc([N+](=O)[O-])cc1)c1ccc(F)cc1` (centres unmarked) [Compound 32], the inhibition at 75 µM (single concentration of 75 μM) was 76%. For the compound `O=C(C1=C(O)C(=O)N(c2cccc(-c3ccccc3)c2)C1c1ccc([N+](=O)[O-])cc1)c1ccccc1F` (centres unmarked) [Compound 33], for the setting “single concentration of 75 μM”, the inhibition at 75 µM stood at 98%. With `O=C(C1=C(O)C(=O)N(c2cccc(-c3ccccc3)c2)C1c1ccc([N+](=O)[O-])cc1)c1ccc([N+](=O)[O-])c(O)c1` (centres unmarked) [Compound 34], the inhibition at 75 µM was 49%.

`O=C(C1=C(O)C(=O)N(c2cccc(-c3ccccc3)c2)C1c1ccc([N+](=O)[O-])cc1)c1ccco1` (centres unmarked) [Compound 35]: the IC50 is approximately 45 µM. Moreover, the inhibition at 75 µM (single concentration of 75 μM) was found to be 87%. Regarding `Cc1ccc(C(=O)C2=C(O)C(=O)N(c3cccc(-c4ccccc4)c3)C2c2ccc([N+](=O)[O-])cc2)o1` (centres unmarked) [Compound 36], for the setting “single concentration of 75 μM”, the inhibition at 75 µM is 83%. For `Cn1cccc1C(=O)C1=C(O)C(=O)N(c2cccc(-c3ccccc3)c2)C1c1ccc([N+](=O)[O-])cc1` (centres unmarked) [Compound 37], under “single concentration of 75 μM”, the inhibition at 75 µM was found to be 75%. Still for that read-out and setting: as for `O=C(C1=C(O)C(=O)N(c2cccc(-c3ccccc3)c2)C1c1ccc([N+](=O)[O-])cc1)c1nccs1` (centres unmarked) [Compound 38], the figure is 8%. Consider `O=C(C1=C(O)C(=O)N(c2cccc(-c3ccccc3)c2)C1c1ccc([N+](=O)[O-])cc1)c1ccc(C(F)(F)F)cc1` (centres unmarked) [Compound 39], for which, for the setting “single concentration of 75 μM”, the inhibition at 75 µM turned out to be 40%. The same measure, in the same setting: under `O=C(C1=C(O)C(=O)N(c2ccc3oc4ccccc4c3c2)C1c1ccc([N+](=O)[O-])cc1)c1ccccc1` (centres unmarked) [Compound 40] stands 94%; under `O=C(C1=C(O)C(=O)N(c2ccc3oc4ccccc4c3c2)C1c1ccc([N+](=O)[O-])cc1)c1ccc(Br)cc1` (centres unmarked) [Compound 41], 53%; under `COc1ccc(C(=O)C2=C(O)C(=O)N(c3ccc4oc5ccccc5c4c3)C2c2ccc([N+](=O)[O-])cc2)cc1` (centres unmarked) [Compound 42], 74%.

For the compound `O=C(C1=C(O)C(=O)N(c2ccc3oc4ccccc4c3c2)C1c1ccc([N+](=O)[O-])cc1)c1ccc(F)cc1` (centres unmarked) [Compound 43], the inhibition at 75 µM (single concentration of 75 μM) is 60%. Consider `O=C(C1=C(O)C(=O)N(c2ccc3oc4ccccc4c3c2)C1c1ccc([N+](=O)[O-])cc1)c1ccco1` (centres unmarked) [Compound 44], for which the inhibition at 75 µM (single concentration of 75 μM) was determined as 90%. As for `O=C(C1=C(O)C(=O)N(c2ccc3c(c2)oc2ccccc23)C1c1ccc([N+](=O)[O-])cc1)c1ccccc1` (centres unmarked) [Compound 45], the “inhibition of LIN28–let-7 complex formation in concentration-dependent EMSA (in words)” value (dose–response EMSA) is listed as “best inhibitory activities among the evaluated molecules”. In addition, under “single concentration of 75 μM”, the inhibition at 75 µM was 97%. With `O=C(C1=C(O)C(=O)N(c2ccc3c(c2)oc2ccccc23)C1c1ccc([N+](=O)[O-])cc1)c1ccc(Br)cc1` (centres unmarked) [Compound 46], the inhibition at 75 µM (single concentration of 75 μM) worked out at 86%. As for `COc1ccc(C(=O)C2=C(O)C(=O)N(c3ccc4c(c3)oc3ccccc34)C2c2ccc([N+](=O)[O-])cc2)cc1` (centres unmarked) [Compound 47], the inhibition at 75 µM (single concentration of 75 μM) stood at 87%. Take `O=C(C1=C(O)C(=O)N(c2ccc3c(c2)oc2ccccc23)C1c1ccc([N+](=O)[O-])cc1)c1ccc(F)cc1` (centres unmarked) [Compound 48]: the inhibition at 75 µM (single concentration of 75 μM) turned out to be 93%.
